Measured values published in article PMC10650850, “Discovery, Structure–Activity Relationship and In Vitro Anticancer Activity of Small-Molecule Inhibitors of the Protein–Protein Interactions between AF9/ENL and AF4 or DOT1L” (Cancers, 2023).
Entries after “also recorded” stand apart in the source; their conditions may differ. Where a name gives a salt, the structure may show the parent alone. No end group written: not given here. *: point of attachment. Biotin = O=C1N[C@H]2[C@H](CS[C@H]2CCCCC(=O)*)N1; Ahx = NCCCCCC(=O)O

Tests used:
[1] = molecular target: T1, AF9-DOT1L interaction (Homo sapiens, UniProt P42568); assay: AlphaLisa assay, AF9-DOT1L interaction; assay type: binding; settings: for IC50: MBP-protein 5 nM, biotinylated peptide 40 nM, 3 independent experiments with standard deviation, read-out: IC50 (μM) against the AF9-DOT1L interaction
T1 construct: human AF9 AHD domain (475–568); made in house; host or cells: E. coli BL21(DE3)
T1 sequence (P42568 475-568): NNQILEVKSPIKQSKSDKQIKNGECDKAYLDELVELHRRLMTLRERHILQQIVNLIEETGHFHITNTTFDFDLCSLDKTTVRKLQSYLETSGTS
Method in brief: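 AlphaLisa proximity assay using MBP-tagged human AF9 AHD (475–568, 5 nM) on anti-MBP acceptor beads and biotinylated DOT1L peptide (40 nM) on streptavidin donor beads, in PBS with 0.5% BSA, pH 7.5. Compound titrated; IC50 from dose-response fits of 3 independent experiments.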

[2] = molecular target: AF9/ENL-DOT1L interaction; design: method as in PMID 30258537, PMID 35612819; settings: printed in Chart 1; ref [33],[34]; cited from earlier work
[3] = molecular target: T2, ENL-AF4 (Homo sapiens, UniProt Q03111); assay: AlphaLisa assay, ENL-AF4 interaction; assay type: binding; settings: ENL AHD, AF4 peptide
T2 construct: ENL AHD domain (489–559); made in house; host or cells: E. coli BL21(DE3)
T2 sequence (Q03111 489-559): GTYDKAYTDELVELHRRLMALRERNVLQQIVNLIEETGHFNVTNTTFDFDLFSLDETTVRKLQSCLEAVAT
Procedure: (§1) Transcription cofactor AF4, which is the most frequent (~35%) fusion protein in MLL1-r leukemia, is another binding partner of AF9/ENL [35, 36, 37]. The AF9/ENL-AF4 interactions are essential for the formation of SEC, which causes aberrant gene expression in MLL-r leukemia and other AMLs. Using our previously developed AlphaLisa assays, selected compounds were tested for their ability to inhibit the PPIs between AF9 or ENL and AF4.
(§2) The cDNA for the human AF9 AHD domain (475–568) and ENL AHD domain (489–559) was synthesized (by Genscript, Piscataway, NJ, USA) and inserted into the pMAL c5X expression plasmid. The DOT1L peptide (Biotin-AHX-[…]) and AF4 peptide (Biotin-AHX-[…]) for the Alpha assay were purchased from Genscript.
(§3) Alpha assays were developed in our previous publication, using a Perkin-Elmer AlphaLisa anti-MBP kit, which contains streptavidin donor beads and anti-MBP acceptor beads. Briefly, the assay was performed using a MBP-protein (5 nM), a biotinylated peptide (40 nM), and increasing concentrations of a compound in 25 µL buffer (PBS with 0.5% BSA, pH 7.5) in 384-well plates according to the manufacturer’s protocol and measured with a Tecan SPARK microplate reader. Data were imported into Prism (version 5.0), and IC50 values from 3 independent experiments with standard deviation were obtained by using a standard dose-response curve fitting.

[4] = molecular target: T1, AF9-DOT1L interaction; assay: Pull-down assay of AF9 AHD with DOT1L peptide-coated beads; assay type: binding
Text: A pull-down assay was used to confirm that the strong inhibitors could disrupt the AF9-DOT1L interaction. Streptavidin agarose beads coated with biotinylated DOT1L peptide were used to pull-down the protein AF9 AHD in the solution, followed by thorough washing, SDS-PAGE (sodium dodecyl sulfate-polyacrylamide gel electrophoresis) and Western blotting to visualize and quantitate the protein. […] This alternative, non-optical method confirmed that compounds 24 and 50 can inhibit the PPI between AF9 and DOT1L.
The pull-down assays were conducted following our previous method. Briefly, the biotinylated DOT1L peptide (0.25 mg/mL) was incubated with streptavidin agarose beads (20 μL) in PBS containing 0.1% Triton X-100 (400 µL) for 3h to yield, after washing, DOT1L-coated beads. MBP-tagged AF9 AHD (0.2 µM, 400 µL) was pre-incubated with a compound for 1 h before adding to the beads. After 6 h incubation at 4 °C, the beads were collected, thoroughly washed, and subjected to SDS-PAGE and analyzed by Western blot using an MBP antibody (#2396, Cell signaling, Danvers, MA, USA).

[5] = test system: HoxA9, Meis1 and Myc; assay: RT-qPCR of MLL target genes in Molm-13 cells; assay type: cell-based; settings: 1 and 5 µM, 4 days
Text: The major function of the SEC is to promote transcription elongation for its bound genes. Because of the high affinity of the PPIs between AF9/ENL and AF4, onco-MLL (e.g., MLL-AF4 or MLL-AF9/-ENL) recruits SEC to MLL target genes, facilitates their expression, and eventually causes leukemia initiation. Next, we investigated whether selected inhibitors of these PPIs can inhibit the expression of HoxA9, Meis1 and Myc, which are MLL target genes and their high expression is characteristic of MLL-r leukemia. In addition, high expression of Myc is also observed in a broad range of AMLs and other cancers and is considered a driving factor for oncogenesis. To this end, RNAs from the control and compound-treated Molm-13 cells (harboring MLL-AF9) were extracted and subjected to quantitative PCR. […] RNA extraction and RT-qPCR were performed following our previous method. 10^5 cells/mL were incubated with a compound for 4 days and the RNA was extracted using an RNeasy mini kit (#74104, Qiagen, Germantown, MD, USA). 100–1000 ng of total RNA was reverse transcribed using iScript™ Reverse Transcription Supermix (Bio-Rad, Hercules, CA, USA), using the manufacturer’s protocol. Quantitative real-time PCR was carried out using Fast SYBR Green Master Mix (Applied Biosystems, Waltham, MA, USA) according to the manufacturer’s instructions. Measurements were performed in triplicate using GAPDH as the reference gene. Real-time PCR was performed using the Biosystems Step One Plus detection system. The following sequences of primers were used: […]

[6] = test system: panel of MLL-r leukemia and other cancer cells; assay: Antiproliferation assay (XTT), panel of MLL-r leukemia and other cancer cells; assay type: cell-based; settings: 168 h, MV4;11, Molm-13, NB4 and HL60 cells, 7 days, read-out: Antitumor activity EC50, span over MLL-r leukemia and AML cells
Procedure: (§4) The antitumor activity of selected compounds was evaluated against the proliferation of a panel of MLL-r leukemia and other cancer cells. MV4;11 and Molm-13 leukemia cells contain MLL-AF4 and MLL-AF9 fusion oncogenes, respectively. NB4 and HL60 are AML cells without MLL translocation. Hela (cervical cancer) is a solid tumor cell line. […] The anti-proliferation activity of these compounds against other AML cells (i.e., NB4 and HL60) might be due to their inhibition of SEC-mediated gene expression (e.g., Myc), as observed in our previous studies.
(§5) Proliferation inhibition assays were performed using an XTT assay kit (Biotium, Fremont, CA, USA) following our previous methods. The antiproliferation EC50 values were determined using Prism 5 and the reported results were the mean values of at least three independent experiments. The incubation time for all compounds was 7 days.

[7] = test system: Hela; assay: Antiproliferation assay (XTT), Hela; assay type: cell-based; settings: Homo sapiens, HeLa, 168 h, 7 days incubation, read-out: Antitumor activity EC50, Hela
Procedure: as §4, §5

[8] = molecular target: T3, AF9-AF4 (Homo sapiens, UniProt P42568); assay: AlphaLisa assay, AF9-AF4 interaction; assay type: binding; settings: AF9 AHD, AF4 peptide
T3 construct: human AF9 AHD domain (475–568); made in house; host or cells: E. coli BL21(DE3)
T3 sequence (P42568 475-568): T1 sequence (P42568 475-568)
Procedure: as §1, §2, §3

[9] = test system: HL60; assay: Antiproliferation assay (XTT), HL60; assay type: cell-based; settings: Homo sapiens, HL-60, 168 h, 7 days incubation, read-out: Antitumor activity EC50, HL60;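 note: EC50 values in Micromolar not Nanomolar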
Procedure: as §4, §5

[10] = test system: NB4; assay: Antiproliferation assay (XTT), NB4; assay type: cell-based; settings: Homo sapiens, NB-4, 168 h, 7 days incubation, read-out: Antitumor activity EC50, NB4;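 note: EC50 values in Micromolar not Nanomolar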
Procedure: as §4, §5

[11] = test system: Molm13; assay: Antiproliferation assay (XTT), Molm-13; assay type: cell-based; settings: Homo sapiens, MOLM-13, 168 h, 7 days incubation, read-out: Antitumor activity EC50, Molm13;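 note: EC50 values in Micromolar not Nanomolar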
Procedure: as §4, §5

[12] = test system: MV4;11; assay: Antiproliferation assay (XTT), MV4;11; assay type: cell-based; settings: Homo sapiens, MV4-11, 168 h, 7 days incubation, read-out: Antitumor activity EC50, MV4;11;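 note: EC50 values in Micromolar not Nanomolar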
Procedure: as §4, §5

[13] = molecular target: T4, MBP-tagged AF9 AHD domain (475–568) (human, UniProt P42568 475-568); assay: AlphaScreen or HTRF; AlphaLisa (Perkin-Elmer anti-MBP kit): MBP-protein (5 nM) on anti-MBP acceptor beads, biotinylated peptide (40 nM) on streptavidin donor beads, increasing concentrations of a small-molecule compound, 25 µL PBS with 0.5% BSA, pH 7.5, 384-well plates; settings: both partners purified
T4 construct: AF9 (MLLT3), human, C-terminal AHD domain, residues 475-568; cDNA synthesized by Genscript and inserted into pMAL c5X; Expressed from pMAL c5X; the MBP tag is used for capture on anti-MBP acceptor beads and for detection by an MBP antibody; also called MBP-protein; source: E. coli BL21(DE3), purified (amylose resin, size exclusion Superdex 200); not shown: MBP, N-terminal, kept
T4 sequence (looked up): T1 sequence (P42568 475-568)

[14] = molecular target: T5, MBP-tagged ENL AHD domain (489–559) (human, UniProt Q03111 489-559); assay: as above; settings: both partners purified
T5 construct: ENL (MLLT1), human, C-terminal AHD domain, residues 489-559; cDNA synthesized by Genscript and inserted into pMAL c5X; Expressed from pMAL c5X; the MBP tag is used for capture on anti-MBP acceptor beads; also called MBP-protein; source: E. coli BL21(DE3), purified (amylose resin, size exclusion Superdex 200); not shown: MBP, N-terminal, kept
T5 sequence (looked up): T2 sequence (Q03111 489-559)

N#Cc1cccc(-c2ccc3cc(C(=O)NCC4CCNCC4)[nH]c3c2)c1 [Compound 10, 6-(3-Cyanophenyl)-N-(piperidin-4-ylmethyl)-1H-indole-2-carboxamide hydrochloride]
IC50 [1]: 2.1 µM | inhibition at 5 µM ([1]; compound at 5 μM, read-out: % Inhibition at 5 μM against the AF9-DOT1L interaction): 0% | Ki [2]: 0.009 µM

Cl.O=C(NCC1CCNCC1)c1cc2cc(-c3ccc(N4CCCCC4)cc3)ccc2s1 [Compound 50, 5-(4-(Piperidin-1-yl)phenyl)-N-(piperidin-4-ylmethyl)-benzo[b]thiophene-2-carboxamide hydrochloride]
IC50 [1]: 2.5 ± 0.2 µM | IC50 [3]: 3.4 ± 0.4 µM | remaining activity at 10 µM ([4]; Western blot, compound 10 μM, read-out: AF9 AHD % Control): 27% | remaining activity at 50 µM ([4]; Western blot, compound 50 μM, read-out: AF9 AHD % Control): 29% | Effect on AF9 AHD bound to DOT1L peptide-coated beads (in words) ([4]; up to 50 µM): significantly reduced the amounts of AF9 AHD; also recorded: dose-dependently reduce AF9 AHD | Expression of MLL target genes HoxA9, Meis1 and Myc (in words) [5]: inhibited expression; also recorded: able to reduce the expression | EC50 [6]: 5.1 to 9.4 µM | EC50 [7]: 25 ± 2.5 µM | IC50 [8]: 2.5 ± 0.3 µM | EC50 [9]: 9 ± 0.9 µM | EC50 [10]: 9.4 ± 1.2 µM | EC50 [11]: 5.1 ± 0.2 µM | EC50 [12]: 8.2 ± 1.2 µM

B1: DOT1L peptide (Biotin-AHX-NKLPVSIPLASVVLPSRAERARST) (peptide)
peptide: {Biotin-Ahx}-NKLPVSIPLASVVLPSRAERARST
notes: stretch of histone H3K79 methyltransferase DOT1L with an LxVxIxLxxV/L motif; also called biotinylated DOT1L peptide; source: synthetic peptide, bought: Genscript
binding result [13]: binds

B2: AF4 peptide (Biotin-AHX-QSLMVKITLDLLSRIPQPPGK) (peptide)
peptide: {Biotin-Ahx}-QSLMVKITLDLLSRIPQPPGK
notes: stretch of transcription cofactor AF4 (AFF1) with an LxVxIxLxxV/L motif; also called biotinylated AF4 peptide; source: synthetic peptide, bought: Genscript
binding result [14]: binds | binding result [13]: binds
